Measurements reported in paper PMC11327196, “A phase 1 study to assess the absolute bioavailability, mass balance, pharmacokinetics, metabolism, and excretion of [^14C]-mobocertinib, an oral inhibitor of EGFR exon 20 insertion mutations, in healthy participants” (Investigational New Drugs, 2024).
“Also recorded” adds a separate entry of the source.

Key:
[1] = parameters: method as in PMID 34145979; details: healthy participants, cited from earlier work
[2] = system: EGFRex20ins mutation positive locally advanced or metastatic NSCLC; parameters: method as in doi:10.1016/j.annonc.2023.10.586; details: mobocertinib versus chemotherapy, first-line; cited from earlier work
[3] = Period 2 human ADME study: whole blood PK after oral solution [14C]-mobocertinib; type: in vivo
Description: (§1) This was a two-period, open-label, single-dose phase 1 study (NCT03811834) conducted at one clinical site (Celerion, Lincoln, Nebraska, USA) in healthy male participants. The primary objective of Period 1 was to determine the absolute bioavailability of mobocertinib following a single oral dose of 160 mg mobocertinib as capsules and a single intravenous (IV) microdose of 50 µg (~ 2 µCi) [^14C]-mobocertinib. The primary objectives of Period 2 were to (1) assess the cumulative excretion of total radioactivity in urine and feces (mass balance); (2) assess the metabolite profile of mobocertinib in plasma, urine, and feces; and (3) characterize the PK of mobocertinib, AP32960, and AP32914 in plasma, whole blood, and urine, and total radioactivity concentration equivalents in plasma and whole blood following a single oral dose of 160 mg (~ 100 µCi) [^14C]-mobocertinib as an oral solution. A sample size of 6 healthy males was selected without statistical considerations and deemed adequate to meet the study objectives. Furthermore, the sample size was limited based on clinical considerations for human ADME studies and to limit exposure to radioactivity.
(§2) After a washout of 8–9 days, participants returned to the clinic for Day − 1 of Period 2. On Day 1 of Period 2, after a fast of ≥ 10 h, participants received a single nominal dose of 160 mg (~ 100 µCi; whole body effective dose of 5.3 mrem for a 70-kg human) [^14C]-mobocertinib as a 70 mL oral solution. The actual doses administered ranged from 161 to 163 mg (92.4 to 93.9 µCi). Participants stayed in the clinic from Day − 1 until a discharge criterion (≥ 80% of the total administered radioactive dose was recovered in urine and feces or excretion of radioactivity in urine and feces combined had declined to ≤ 1% of the total administered dose per day for ≥ 2 consecutive intervals) was met, or up to 10 days postdose. To measure the total radioactivity and concentrations of mobocertinib, AP32960, and AP32914 in whole blood and plasma, 4 blood samples were collected predose, and at 0.5, 1, 2, 3, 4, 5, 6, 8, 12, 24, 36, 48, 72, 96, 120, 144, 168, 192, 216, and 240 h postdose; a fifth blood sample was collected for plasma metabolite profiling at predose and 1, 2, 4, 6, 12, 24, 48, 72, 96, 120, and 168 h postdose. Feces and urine were collected predose (feces within 48 h and urine within 24 h prior to dosing), 0–24 h (urine from 0–12 and 12–24 h), and then at 24-hour intervals up to 240 h postdose or until a discharge criterion was met. […] These 2 participants continued with at-home fecal sample collections. One participant provided fecal samples until Day 13 (264–288 h interval) and one participant provided fecal samples until Day 19 (408–432 h interval), after which they met a discharge criterion.
(§3) Plasma, whole blood, and urine samples were assayed for mobocertinib, AP32960, and AP32914 concentrations using liquid chromatography-tandem mass spectrometry (Q2 Solutions, Ithaca, New York, USA). The analytical range for each analyte was 0.250 to 500 ng/mL in whole blood and plasma, and 1.00 to 1000 ng/mL in urine. […] Urine and fecal samples were assayed for total radioactivity following the IV dose of [^14C]-mobocertinib in Period 1, and whole blood, plasma, urine, and fecal samples were assayed for total radioactivity following the oral dose of [^14C]-mobocertinib in Period 2 using liquid scintillation counting (LSC; Celerion, Lincoln, Nebraska, USA; LLOQs: Period 1 urine: 0.115–0.118 ng eq/g, feces: 0.720–0.759 ng eq/g; Period 2 whole blood: 87.3–112 ng eq/g, plasma: 116–132 ng eq/mL, urine: 37.8–46.8 ng eq/g, feces: 110–336 ng eq/g across participants). Urine and fecal samples collected in Period 1 that had total radioactivity concentration equivalents below the LLOQ of the Celerion LSC assay were sent to Pharmaron for measurement by AMS (LLOQ: urine: 0.0000253–0.00111 ng eq/g; feces: 0.000404–0.0278 ng eq/g across participants). The LSC and AMS assays were not cross-validated. […]

[4] = Safety assessments (adverse events) in healthy participants; type: in vivo, human
Description: Safety was evaluated based on the incidence and severity of AEs and changes from baseline in clinical laboratory results, vital signs, and ECG parameters. AEs were graded according to Common Terminology Criteria for Adverse Events version 5.0.

[5] = Period 2 human ADME study: plasma PK after oral solution [14C]-mobocertinib; type: in vivo
Description: as §1, §2, §3

[6] = Period 2, oral solution 160 mg [14C]-mobocertinib, whole blood, geometric mean (geometric CV%)
[7] = Period 2, oral solution 160 mg [14C]-mobocertinib, blood-to-plasma, geometric mean (geometric CV%)
[8] = male, human, Period 2, oral solution 160 mg [14C]-mobocertinib, whole blood, geometric mean (geometric CV%)
[9] = Period 2, oral solution 160 mg [14C]-mobocertinib, geometric mean (geometric CV%)
[10] = male, human, Period 2, oral solution 160 mg [14C]-mobocertinib, geometric mean (geometric CV%)

C=CC(=O)Nc1cc(Nc2ncc(C(=O)OC(C)C)c(-c3cn(C)c4ccccc34)n2)c(OC)cc1N(C)CCN(C)C [Mobocertinib]
decrease of combined molar AUC of mobocertinib and its active metabolites ([1]; coadministration of strong CYP3A inducer rifampin): 95% | increase of combined molar AUC of mobocertinib and its active metabolites ([1]; coadministration of strong CYP3A inhibitor itraconazole): 527% | primary endpoint of phase 3 study [2]: not met | geometric mean AUC∞ lower in whole blood compared to plasma ([3]; Period 2, oral solution 160 mg [14C]-mobocertinib): 24% | CL/F [3, 6]: 222 (32.6) L/h | Molar AUC∞ ratio (analyte vs. total radioactivity) [3, 6]: 0.00224 (28.3) | t1/2z [3, 6]: 20.5 (25.4) h | B:P Ratio AUC∞ [3, 7]: 0.763 (17.7) | B:P Ratio Cmax [3, 7]: 0.794 (17.1) | tmax ([3]; Period 2, single oral solution 160 mg (~100 µCi) [14C]-mobocertinib, whole blood, median (range)): 5.0 (2.0–6.0) h | blood plasma ratio ([3]; male, human, whole blood and plasma, Period 2, oral solution 160 mg [14C]-mobocertinib, range over time, read-out: arithmetic mean blood-to-plasma (B:P) concentration ratios): 0.6 to 1.04 | AUC(0-inf) [3, 8]: 729 ng·h/mL | AUC(0-t) [3, 8]: 718 ng·h/mL | Cmax [3, 8]: 40.5 ng/mL | Vd/F ([3]; male, human, Period 2, oral solution 160 mg [14C]-mobocertinib, whole blood, geometric mean (geometric CV%), read-out: Vz/F): 6550 L | deaths or serious AEs ([4]; 7 healthy male participants, Periods 1 and 2): no deaths or serious AEs | severity of AEs ([4]; CTCAE version 5.0, both treatment periods): grade 1 (mild) | participants who experienced at least 1 AE ([4]; Period 1): 6 | participants who experienced at least 1 AE ([4]; Period 2): 4 | overall safety and tolerability ([4]; both treatment periods): generally safe and well-tolerated; also recorded: no new safety signals observed | incidence of most common AEs (constipation, diarrhea, and nausea, each) ([4]; each in 2 of 7 participants): 29% | discontinuation because of AEs ([4]; eructation, nausea, salivary hypersecretion, vomiting on Day 1 of Period 1): One participant discontinued the study early because of multiple AEs | participants who experienced at least 1 AE ([4]; of 7 participants, whole study): 7 | t1/2z of total radioactivity ([5]; Period 2, oral solution 160 mg [14C]-mobocertinib, exceeds duration of sampling, approximate estimate, geometric mean (geometric CV%)): ~281 h | CL/F [5, 9]: 169 (38.4) L/h | Molar AUC∞ ratio (analyte vs. total radioactivity) [5, 9]: 0.00172 (31.1) | tmax ([5]; Period 2, single oral solution 160 mg (~100 µCi) [14C]-mobocertinib, median (range)): 6.0 (3.0–6.0) h | AUC(0-inf) [5, 10]: 956 ng·h/mL | AUC(0-t) [5, 10]: 945 ng·h/mL | Cmax [5, 10]: 51 ng/mL | Vd/F ([5]; male, human, Period 2, oral solution 160 mg [14C]-mobocertinib, geometric mean (geometric CV%), read-out: Vz/F): 5560 L | half-life ([5]; male, human, Period 2, oral solution 160 mg [14C]-mobocertinib, geometric mean (geometric CV%), read-out: t1/2z (converted)): 22.8 h
